This experiment deals with MM.1S cells. The experiment is described as follows: DNA fragmentation, APO-BrdU TUNEL assay by FACS. Format: cell-based, human. The method, then: Method: 1×10^6 MM.1S cells (CRL-2974, ATCC) were treated with Example compound 1 or Bendamustine at 0.006, 0.06, 0.6 or 6 μM for 24 h. After incubation, the cells were washed with PBS (10010-015, Gibco), fixed in Flow Cytometry Fixation Buffer (FC004, R&D Systems) for 10 min and stored in 70% ethanol at −20° C. overnight. The deoxythymidine analog (BrdUTP) was present in the experiment and served to label the DNA break sites. Next day, the cells were washed and stained using an APO-BrdU™ TUNEL Assay Kit, according to the manufacturer's protocol (A23210, Invitrogen), followed by the analysis using BD FACSCanto™ II. The percentage ofTUNEL positive cells indicates the percentage of cells with fragmented DNA.

For `CCOC(=O)[C@H](CC(C)C)NC(=O)[C@@H](N)CCc1nc2cc(N(CCCl)CCCl)ccc2n1C` [Example compound 1, Ethyl (2S)-2-[[(2S)-2-amino-4-[5-[bis(2-chloroethyl)amino]-1-methyl-benzimidazol-2-yl]butanoyl]amino]-4-methyl-pentanoate], the “cells with DNA breaks” value (0.6 μM for 24 h) was over 90%. Further, the “dose response effect on DNA damage (TUNEL positive cells)” value (0.006, 0.06, 0.6 or 6 μM for 24 h) was “induced DNA damage in a dose-dependent manner”.

Source of the values: patent US20260199294A1, “PEPTIDE DRUG CONJUGATES” (Oncopeptides Innovation AB, priority 2022, published 2026).
